Laboratory results from the supplement of paper PMC11451515.

System: P12-Ichikawa
Experiment: cell viability relative to DMSO control; higher = less cytotoxic
Details: 48 h
Method in brief: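 Three leukemia lines were tested: NOMO1 and SEM at 500 cells/well and P12-Ichikawa at 1000 cells/well. Each was adapted for at least four passages in each medium and seeded in 5 μl in 1536-well plates, and library compounds in DMSO were pin-dosed from 47 μM to 0.79 nM in 11 threefold steps. After 48 h at 37°C, CellTiter-Glo One luminescence was read. Viability is a percentage relative to DMSO wells on each plate, with cell-free wells as background.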

[1] = RPMI 5 mM glucose + 10% FBS, 0.000781 µM
[2] = RPMI 5 mM glucose + 10% FBS, 0.00234 µM
[3] = RPMI 5 mM glucose + 10% FBS, 0.00702 µM
[4] = RPMI 5 mM glucose + 10% FBS, 0.0211 µM
[5] = RPMI 5 mM glucose + 10% FBS, 0.0632 µM
[6] = RPMI 5 mM glucose + 10% FBS, 0.19 µM
[7] = RPMI 5 mM glucose + 10% FBS, 0.569 µM
[8] = RPMI 5 mM glucose + 10% FBS, 1.71 µM
[9] = RPMI 5 mM glucose + 10% FBS, 5.12 µM
[10] = RPMI 5 mM glucose + 10% FBS, 15.4 µM
[11] = RPMI 5 mM glucose + 10% FBS, 46.1 µM
[12] = HPLM + 10% dialyzed FBS, 0.000781 µM
[13] = HPLM + 10% dialyzed FBS, 0.00234 µM
[14] = HPLM + 10% dialyzed FBS, 0.00702 µM
[15] = HPLM + 10% dialyzed FBS, 0.0211 µM
[16] = HPLM + 10% dialyzed FBS, 0.0632 µM
[17] = HPLM + 10% dialyzed FBS, 0.19 µM
[18] = HPLM + 10% dialyzed FBS, 0.569 µM
[19] = HPLM + 10% dialyzed FBS, 1.71 µM
[20] = HPLM + 10% dialyzed FBS, 5.12 µM
[21] = HPLM + 10% dialyzed FBS, 15.4 µM
[22] = HPLM + 10% dialyzed FBS, 46.1 µM
[23] = RPMI 5 mM glucose + 10% dialyzed FBS, 0.000781 µM
[24] = RPMI 5 mM glucose + 10% dialyzed FBS, 0.00234 µM
[25] = RPMI 5 mM glucose + 10% dialyzed FBS, 0.00702 µM
[26] = RPMI 5 mM glucose + 10% dialyzed FBS, 0.0211 µM
[27] = RPMI 5 mM glucose + 10% dialyzed FBS, 0.0632 µM
[28] = RPMI 5 mM glucose + 10% dialyzed FBS, 0.19 µM
[29] = RPMI 5 mM glucose + 10% dialyzed FBS, 0.569 µM
[30] = RPMI 5 mM glucose + 10% dialyzed FBS, 1.71 µM
[31] = RPMI 5 mM glucose + 10% dialyzed FBS, 5.12 µM
[32] = RPMI 5 mM glucose + 10% dialyzed FBS, 15.4 µM
[33] = RPMI 5 mM glucose + 10% dialyzed FBS, 46.1 µM

Compound	cell viability [1]	cell viability [2]	cell viability [3]	cell viability [4]	cell viability [5]	cell viability [6]	cell viability [7]	cell viability [8]	cell viability [9]	cell viability [10]	cell viability [11]	cell viability [12]	cell viability [13]	cell viability [14]	cell viability [15]	cell viability [16]	cell viability [17]	cell viability [18]	cell viability [19]	cell viability [20]	cell viability [21]	cell viability [22]	cell viability [23]	cell viability [24]	cell viability [25]	cell viability [26]	cell viability [27]	cell viability [28]	cell viability [29]	cell viability [30]	cell viability [31]	cell viability [32]	cell viability [33]
O=C(CCCCCCC(=O)Nc1ccc([C@H]2O[C@@H](CSc3nc(-c4ccccc4)c(-c4ccccc4)o3)C[C@@H](c3ccc(CO)cc3)O2)cc1)NO	118%	122%	134%	123%	136%	116%	115%	114%	49.9%	4.95%	3.26%																						
CCCC(C)(COC(N)=O)COC(=O)NC(C)C (stereo unspecified)												115%	117%	114%	130%	127%	123%	121%	119%	129%	135%	119%											
CC[S+](=O)([O-])Nc1ccc2c(c1)/C(=C(/Nc1ccc(CN3CCCCC3)cc1)c1ccccc1)C(=O)N2	127%	116%	120%	119%	114%	14.3%	17.4%	30.7%	35.3%	51.4%	21.4%	106%	114%	115%	109%	111%	12.9%	11.6%	18.7%	27.1%	54.3%	32.2%	123%	117%	121%	118%	121%	22.6%	25.8%	47.3%	52%	59.8%	18.8%
CCc1cc(C(N)=S)ccn1	108%	121%	118%	115%	122%	134%	119%	128%	114%	103%	104%	116%	115%	120%	126%	124%	122%	127%	114%	104%	93.7%	80.2%	111%	124%	119%	120%	121%	129%	122%	120%	104%	95.9%	86.5%
C=C1C(=O)[C@@]23C(CC[C@@H]1[C@H]2O)[C@@]12CO[C@]3(O)[C@@H](O)[C@@H]1C(C)(C)CC[C@@H]2O (stereo partly specified)	116%	116%	119%	119%	132%	118%	113%	95.5%	85.7%	16.6%	3.61%	108%	119%	120%	123%	122%	115%	113%	112%	89.1%	44.7%	3.48%	116%	117%	126%	123%	125%	124%	111%	105%	75.6%	21.9%	3.49%
